According to patent US20130150399A1, “INHIBITORS OF THE UNFOLDED PROTEIN RESPONSE AND METHODS FOR THEIR USE” (The Board of Trustees of the Leland Stanford Junior …, priority 2006, published 2013):

Key:
Grp78 = assay: Western immunoblot of Grp78, HT1080 cells; assay type: cell-based, human; conditions: irestatin 9389 2.5 μM, 16 hours (also 24 or 36 hours)
Experimental: Cells (2×10^6) were cultured in 10-cm dishes, collected using a cell scraper at 4° C., and lysed by addition of 150 μl cell lysis buffer [50 mM Tris pH 7.4, 150 mM NaCl, 10% glycerol, 0.5% Triton X-100. 0.5% NP-40, 2 mM Na3VO4, 20 mM beta-glycerophosphate, 10 mM NaF, 1 mM DTT, 1 mM PMSF). Lysates were centrifuged for 5 min at 10,000×g, and proteins (˜40 μg) were resolved by SDS-PAGE followed by semi-dry transfer to nitrocellulose membranes. Membranes were blocked in TBS-5% milk supplemented with 0.1% Tween-20. The blots were then probed overnight with relevant antibodies, washed, and incubated for 2 hours with species-specific secondary antibodies conjugated to horseradish peroxidase. After washing in block solution, immunoreactive material was detected by enhanced chemiluminescence (SuperSignal West Dura Extended, Pierce, Inc., Rockville, Ill.).
HT1080 cells were exposed to DMSO vehicle (lane 1), irestatin 9389 (2.5 μM; lane 2) for 16 hours or Tm (5 μg/ml; lane 3) for 8 hours. Following treatments, cells were harvested, lysed, and analyzed by immunoblotting using anti-Grp78 antibody (top) or anti-actin (bottom) as a loading control. […] Cell lysates were analyzed by Western immunoblotting using anti-IRE1α (bottom) or anti-phospho-IRE1α antibodies (top). […] Lysates were analyzed by Western blot using antisera specific for phospho-JNK1 (top) or total JNK1 (bottom). […]

HT1080 cells = assay: Clonogenic survival (colony formation) assay, HT1080; assay type: cell-based, human
Experimental: Several of the candidate irestatins were tested in a hypoxia clonogenic survival assay. […] HT1080 fibrosarcoma cells stably were treated with 1 uM of the indicated irestatin or left untreated, and incubated in hypoxia (0.01% oxygen) for 48 hrs at 37° C. Cells were harvested and counted, and allowed to form colonies under normal oxygen tension. Survival rate is expressed as the fraction of colonies formed divided by the total number of cells seeded for each condition. For all experiments, cells were plated in triplicate, and all experiments were repeated at least three times. These experiments were repeated using MiaPaCa2 cells in place of the HT1080 fibrosarcoma cells.
For hypoxia survival assays, cells were grown in 60 mm dishes until reaching at 50-70% confluence and shifted to hypoxia (0.1% O2) for 48 hrs. Cells were trypsinized, counted using a hemocytometer, and replated in triplicate at 1,000-20,000 cells per plate in normal culture medium. After 10-12 days of growth under normal oxygen conditions, colonies were stained with 0.2% crystal violet in ethanol and counted. Survival values are expressed as the number of colonies divided by the total number of cells seeded for each condition, normalized to the plating efficiency under normal oxygen conditions. At least three independent experiments were performed.
A. Effect of irestatin 9389 on PERK and ATF6 pathways. HT1080 cells were treated with vehicle alone (lanes 1-4) or 2.5 μM irestatin 9389 (lanes 5-8) and cultured under aerobic conditions for 18 hours (N) or shifted to hypoxia for the indicated times. Protein lysates were analyzed by Western blot analysis using antisera specific for ATF6 (top), CHOP/GADD153 (middle) or actin (bottom). […] Cells were harvested, counted, and allowed to grow under normal culture conditions for 11-12 days. […] D. Quantification of clonogenic survival assay. […] F. Quantification of TUNEL-positive cells. […] Cells were harvested at the indicated times and counted by hemocytometer. Values represent the mean calculated from triplicate experiments+/−SEM.

Cc1csc(NC(=O)CSc2nc3c(c(C(F)(F)F)c2C#N)CCC3)n1 [Compound 9389]
Grp78 levels (Grp78): no effect on Grp78 levels | colony formation (HT1080 cells; 2.5 μM, hypoxia for 48 hours): strongly inhibited colony formation | survival of HT1080 cells (colony formation) (HT1080 cells; 2.5 μM, normal oxygen conditions): negligible effect on the survival | decrease in the rate of colony formation (HT1080 cells; exposure during hours 40-48 of hypoxia, data not shown): 8 fold
